# Results: US11980616B2, “Treating liver disease by selectively eliminating senescent cells” (Buck Institute for Research on Aging, priority 2014, dated 2024)
# Experiments:
# [1] = test system: 3MR or INK-ATTAC mice exposed to cigarette smoke; assay: Chronic cigarette smoke exposure model (COPD); type: in vivo, mouse; conditions: after 2 months of cigarette smoke exposure; vs untreated controls
# Description: In a second animal model for pulmonary diseases (e.g., COPD), mice were exposed to cigarette smoke. The effect of a senolytic agent on the mice exposed to smoke is assessed by senescent cell clearance, lung function, and histopathology.
# Six week-old 3MR (n=35) or INK-ATTAC (n=35) mice were chronically exposed to cigarette smoke generated from a Teague TE-10 system, an automatically-controlled cigarette smoking machine that produces a combination of side-stream and mainstream cigarette smoke in a chamber, which is transported to a collecting and mixing chamber where varying amounts of air is mixed with the smoke mixture. The COPD protocol was adapted from the COPD core facility at Johns Hopkins University (at Internet site web.jhu.edu/Biswal/exposure_core/copd.html#Cigarette_Smoke) (Rangasamy et al., 2004, J. Clin. Invest. 114:1248-1259; Yao et al., 2012, J. Clin. Invest. 122:2032-2045). Mice received a total of 6 hours of cigarette smoke exposure per day, 5 days a week for 6 months. Each lighted cigarette (3R4F research cigarettes containing 10.9 mg of total particulate matter (TPM), 9.4 mg of tar, and 0.726 mg of nicotine, and 11.9 mg carbon monoxide per cigarette [University of Kentucky, Lexington, KY]) was puffed for 2 seconds and once every minute for a total of 8 puffs, with the flow rate of 1.05 L/min, to provide a standard puff of 35 cm^3. The smoke machine was adjusted to produce a mixture of side stream smoke (89%) and mainstream smoke (11%) by smoldering 2 cigarettes at one time. The smoke chamber atmosphere was monitored for total suspended particulates (80-120 mg/m^3) and carbon monoxide (350 ppm). Beginning at day 7, (10) INK-ATTAC and (10) 3MR mice were treated with AP20187 (3× per week) or gancyclovir (5 consecutive days of treatment followed by 16 days off drug, repeated until the end of the experiment), respectively. An equal number of mice received the corresponding vehicle. The remaining […] (15 INK-ATTAC and 15 3MR) were evenly split with 5 of each genetically modified strain placed into three different treatment groups. One group (n=10) received Nutlin-3A (25 mg/kg dissolved in 10% DMSO/3% Tween-20 in PBS, treated 14 days consecutively followed by 14 days off drug, repeated until the end of the experiment). […]
# After two months of cigarette smoke exposure, lung function was assessed by monitoring oxygen saturation using the MouseSTAT PhysioSuite pulse oximeter (Kent Scientific). […] Mice were monitored for 30 seconds and the average peripheral capillary oxygen saturation (SpO2) measurement over this duration was calculated.
# [2] = test system: 3MR mice exposed to bleomycin; assay: Bleomycin induced lung injury model; type: in vivo, mouse
# Description: One animal model study assessed the effect of clearance of senescence cells in the transgenic mouse strain 3MR that has bleomycin induced lung injury. In the bleomycin injury model for idiopathic pulmonary fibrosis, mice develop lung fibrosis within 7-14 days after bleomycin treatment (see, e.g., Limjunyawong et al., 2014, Physiological Reports 2:e00249; Daniels et al., 2004, J. Clin. Invest. 114:1308-1316). Bleomycin was administered to anesthetized 6-8 week old 3MR mice by intratracheal aspiration (2.5 U/kg of bleomycin in 50 μl PBS) using a microsprayer syringe (Penn-Century, Inc.) as described in Daniels et al. (2004, J. Clin. Invest. 114:1308-1316). Control mice were administered saline. The day following bleomycin treatment, ganciclovir (GCV) (25 mg/kg in PBS) was administered. 3MR mice were treated via intraperitoneal injection with ganciclovir for 5 consecutive days, followed by 5 days of rest, followed by a second treatment cycle of 5 consecutive days. Untreated mice received an equal volume of vehicle. At 7, 14, and 21 days post-bleomycin treatment, lung function was assessed by monitoring oxygen saturation using the MouseSTAT PhysioSuite pulse oximeter (Kent Scientific). Animals were anesthetized with isoflurane (1.5%) and a toe clip was applied. Mice were monitored for 30 seconds and the average peripheral capillary oxygen saturation (SpO2) measurement over this duration was calculated. […] At 21 days post-bleomycin treatment, airway hyper-reactivity (AHR) of mice was examined. AHR of mice was measured by methacholine challenge while other parameters of lung function (airway mechanics, lung volume and lung compliance) were determined using a SCIREQ flexiVent ventilator. While under ketamine/xylazine anesthesia and subjected to cannulation of the trachea via a tracheostomy (19Fr blunt Luer cannula), airway resistance (elastance) and compliance of mice were assessed at baseline and in response to increasing concentrations of methacholine (0 to 50 mg/ml in PBS) delivered via nebulization (AeroNeb) as described in Aravamudan et al. (Am. J. Physiol. Lung Cell. Mol. Physiol. (2012) 303:L669-L681). Animals were maintained at 37° C., and while under muscle paralysis (pancuronium); airway function was measured by using the FlexiVent™ ventilator and lung mechanics system (SCIREQ, Montreal, Quebec, Canada), which was housed on Stabile 8. […] As shown in FIGS. 60B-C, bleomycin administration reduced static compliance and (dynamic) compliance in vehicle treated mice. […] Mice were euthanized by i.p injection of pentobarbital. Bronchoalveolar lavage (BAL) fluids and lungs is obtained and analyzed. Hydroxyproline content of lungs is measured as described in Christensen et al. (1999, Am. J. Pathol. 155:1773-1779), and quantitative histopathology is performed. RNA is extracted from lung tissue to measure senescence cell markers by qRT-PCR in treated and control mice.
# [3] = bleomycin exposed mouse, not statistically significant, group size too small
# [4] = 25 mg/kg i.p., 21 days post-bleomycin
Structure (SMILES),SpO2 levels [1],"Lung compliance [2, 3]","Lung elastance [2, 3]","Peripheral capillary oxygen saturation (SpO2) ([2]; 25 mg/kg i.p., two cycles of 5 days, 7, 14, 21 days post-bleomycin)","Lung elastance [2, 4]","Static compliance and (dynamic) compliance [2, 4]"
COc1ccc(C2=N[C@@H](c3ccc(Cl)cc3)[C@@H](c3ccc(Cl)cc3)N2C(=O)N2CCNC(=O)C2)c(OC(C)C)c1 [Nutlin-3a],statistically significant increases,increased lung compliance,reduced lung elastance,,,
Nc1nc(O)c2ncn(COC(CO)CO)c2n1 [ganciclovir],statistically significant increases,,,higher SpO2 levels,reduced lung elastance,improved compliance values significantly
